Data reported in ChEMBL document CHEMBL1201862, “PubChem BioAssay data set” (2004).
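The compound was tested at five concentrations on cells cultured in 96-well plates, with a 48-hour exposure period. Here, GI50 denotes the concentration required for 50% inhibition of growth.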 The source made the active and inactive calls. Rule as the data show it: active = GI50 up to about 1.1 µM and inactive = higher.

Experiments:
Test in all cases: NCI-60 cell line screen, 48 h
786-0 = tested on: 786-0
ACHN = tested on: ACHN
BT-549 = tested on: BT-549
DU-145 = tested on: DU-145
KM12 = tested on: KM12
LOX IMVI = tested on: LOX IMVI
M14 = tested on: M14
OVCAR-4 = tested on: OVCAR-4
OVCAR-8 = tested on: OVCAR-8
SF-268 = tested on: SF-268
SK-MEL-28 = tested on: SK-MEL-28
SK-OV-3 = tested on: SK-OV-3
SN12C = tested on: SN12C
SW-620 = tested on: SW-620
UACC-257 = tested on: UACC-257
MCF7 = tested on: MCF7
PC-3 = tested on: PC-3
CCRF-CEM = tested on: CCRF-CEM

Measured: GI50

CC(=O)[C@@]1(C)CC2(CCN(C)CC2)OC1C (some centres not stated)
inactive: 786-0 > 100 µM | ACHN > 100 µM | BT-549 > 100 µM | DU-145 > 100 µM | KM12 > 100 µM | LOX IMVI > 100 µM | M14 > 100 µM | OVCAR-4 > 100 µM | OVCAR-8 > 100 µM | SF-268 > 100 µM | SK-MEL-28 > 100 µM | SK-OV-3 > 100 µM | SN12C > 100 µM | SW-620 > 100 µM | UACC-257 > 100 µM

COc1cc(C2c3cc(O)c(OC)cc3C3OCC2C3CO)ccc1O (configuration not stated)
inactive: 786-0 > 100 µM | ACHN > 100 µM | BT-549 > 100 µM | DU-145 > 100 µM | KM12 > 100 µM | LOX IMVI > 100 µM | M14 > 100 µM | MCF7 > 100 µM | OVCAR-4 > 100 µM | PC-3 > 100 µM | SF-268 > 100 µM | SK-MEL-28 > 100 µM | SK-OV-3 > 100 µM | SW-620 > 100 µM

CCOC(=O)/C=C1\c2ccccc2C(=O)N1CC(=O)OCC
inactive: 786-0 > 100 µM | ACHN > 100 µM | BT-549 > 100 µM | CCRF-CEM > 100 µM | DU-145 > 100 µM | KM12 > 100 µM | LOX IMVI 75.5 µM | M14 > 100 µM | OVCAR-4 > 100 µM | OVCAR-8 > 100 µM | PC-3 > 100 µM | SF-268 > 100 µM | SK-MEL-28 > 100 µM | SK-OV-3 > 100 µM | SN12C > 100 µM | SW-620 > 100 µM | UACC-257 > 100 µM

N=C(c1ccc(-c2cn3cc(C(=N)N4CCCC4)ccc3n2)cc1)N1CCCC1
inactive: 786-0 > 100 µM | ACHN > 100 µM | BT-549 > 100 µM | CCRF-CEM 20.8 µM | DU-145 > 100 µM | KM12 > 100 µM | LOX IMVI > 100 µM | M14 > 100 µM | OVCAR-4 > 100 µM | OVCAR-8 > 100 µM | PC-3 > 100 µM | SF-268 > 100 µM | SK-MEL-28 > 100 µM | SK-OV-3 > 100 µM | SN12C > 100 µM | SW-620 > 100 µM | UACC-257 > 100 µM

Cc1n[nH]c(=S)n1/N=C/c1ccc(-c2ccc(Cl)cc2)o1
inactive: 786-0 > 100 µM | ACHN 63.7 µM | BT-549 11.3 µM | DU-145 > 100 µM | KM12 > 100 µM | LOX IMVI > 100 µM | M14 > 100 µM | MCF7 > 100 µM | OVCAR-4 > 100 µM | OVCAR-8 93.1 µM | PC-3 > 100 µM | SF-268 29.2 µM | SK-MEL-28 > 100 µM | SW-620 > 100 µM | UACC-257 > 100 µM

Cc1oc2nc(N(C)C)nc(NN)c2c1C
inactive: 786-0 > 100 µM | ACHN > 100 µM | BT-549 > 100 µM | CCRF-CEM > 100 µM | DU-145 > 100 µM | KM12 > 100 µM | M14 > 100 µM | OVCAR-4 > 100 µM | OVCAR-8 > 100 µM | PC-3 > 100 µM | SF-268 > 100 µM | SK-MEL-28 > 100 µM | SN12C > 100 µM | SW-620 > 100 µM | UACC-257 > 100 µM

CCOC(=O)c1cc(C2CCN(Cc3ccccc3)C2=O)c(C(=O)/C=C(/C)N)[nH]1 (configuration not stated)
inactive: 786-0 55.6 µM | ACHN > 100 µM | BT-549 > 100 µM | DU-145 > 100 µM | KM12 > 100 µM | M14 > 100 µM | MCF7 96.6 µM | OVCAR-4 72.9 µM | OVCAR-8 65.5 µM | PC-3 > 100 µM | SF-268 > 100 µM | SK-MEL-28 > 100 µM | SK-OV-3 70.5 µM | SW-620 > 100 µM | UACC-257 > 100 µM

COc1ccc2c(CC(=O)O)cc(=O)oc2c1
inactive: 786-0 > 100 µM | ACHN > 100 µM | BT-549 > 100 µM | CCRF-CEM > 100 µM | DU-145 > 100 µM | KM12 > 100 µM | LOX IMVI > 100 µM | M14 > 100 µM | MCF7 > 100 µM | OVCAR-4 > 100 µM | OVCAR-8 > 100 µM | PC-3 > 100 µM | SF-268 > 100 µM | SK-MEL-28 > 100 µM | SN12C > 100 µM | SW-620 > 100 µM | UACC-257 > 100 µM

O=C(CCc1cc(O)cc(O)c1)NCCc1cc(O)cc(O)c1
inactive: 786-0 > 100 µM | ACHN > 100 µM | BT-549 > 100 µM | CCRF-CEM > 10 µM | DU-145 > 100 µM | KM12 > 100 µM | LOX IMVI > 100 µM | M14 > 100 µM | MCF7 > 100 µM | OVCAR-8 > 100 µM | PC-3 > 100 µM | SF-268 > 100 µM | SK-MEL-28 > 100 µM | SK-OV-3 > 100 µM | SN12C > 100 µM | SW-620 > 100 µM | UACC-257 > 100 µM
